Data on 50 compounds can be found in US20240043440A1, “COMPOSITIONS AND METHODS OF MODULATING SHORT-CHAIN DEHYDROGENASE ACTIVITY” (CASE WESTERN RESERVE UNIVERSITY, priority 2017, published 2024).

Some results are limits rather than exact numbers.

Chain of recombinant 15-PGDH (P15428 whole entry): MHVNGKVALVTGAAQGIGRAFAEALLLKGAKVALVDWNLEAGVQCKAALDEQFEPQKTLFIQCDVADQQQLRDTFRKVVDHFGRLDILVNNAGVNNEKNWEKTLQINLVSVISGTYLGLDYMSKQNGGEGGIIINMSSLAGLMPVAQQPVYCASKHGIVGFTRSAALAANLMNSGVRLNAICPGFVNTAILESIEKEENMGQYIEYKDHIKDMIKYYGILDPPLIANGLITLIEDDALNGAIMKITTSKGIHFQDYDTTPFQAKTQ

The subject of one series is IL1-β treated A549 cells. As to the kind of experiment: induction of PGE2 from IL1-β treated A549 cells. As to conditions: Homo sapiens; A549 cells stimulated with IL1-β for 24 hours. Format: cell-based.
`CCCC[S+]([O-])c1sc2nc(-c3cnc(N)nc3)cc(-c3ccccc3)c2c1N` (centres unmarked): the EC50 is below 4 nM.

Tested on in another series: not listed separately
The series is described as follows: chemical stability of the isolated product. Format: physicochemical. The settings on record: cyclizes completely during 10 days to Examples 6 and 7. The source says:
Rather, it cyclized and oxidized as described below.
The desired product 2-(butylsulfinyl)-4-(pyrimidin-5-yl)-6-(thiazol-2-yl)thieno[2,3-b]pyridin-3-amine (Example 5-4) is unstable and cyclizes completely during 10 days to Example 6, (5-(butylsulfinyl)-2-(thiazol-2-yl)-6H-pyrimido[4,5-c]thieno[2,3,4-ij][2,7]naphthyridine) and Example 7, (5-(butylsulfinyl)-2-(thiazol-2-yl)-7H-pyrimido[4,5-c]thieno[2,3,4-ij][2,7]naphthyridine) with Example 6 being the major product. The cyclized products are separable on preparative HPLC: 21.2×250 mm Kinetex 5 μm EVO C18 100 Å reversed phase column using a 2:1 ratio of water to CH3CN with a 10 mL/min flow rate and 100 μL injection volume.
Turning to `CCCC[S+]([O-])c1sc2nc(-c3nccs3)cc(-c3cncnc3)c2c1N` (centres unmarked) [Example 5-4, 2-(butylsulfinyl)-4-(pyrimidin-5-yl)-6-(thiazol-2-yl)thieno[2,3-b]pyridin-3-amine], the “stability of the compound” value is on record as “unstable”.

The next series addresses recombinant 15-PGDH (Homo sapiens (Human), UniProt P15428). The series is described as follows: inhibition of enzymatic activity of recombinant 15-PGDH, in vitro assay. Format: biochemical. The settings on record: Enzyme Inhibitor IC50 (nM) at 1 nM 15-PGDH, 1 nM recombinant 15-PGDH. The source says: This Example provides data on a group of structural analogues of SW033291. Data provided is the IC50 of each compound for inhibiting enzymatic activity of recombinant 15-PGDH in an in vitro assay. Recombinant 15-PGDH is human unless otherwise specified. Additionally, the example provides aqueous solubility data for selected analogues in pH 7 or pH 4 citrate buffer solution.
On to `CCCC[S+]([O-])c1sc2nc(-c3cccnc3)nc(-c3ccccc3)c2c1N` (single isomer, unassigned) [74A, 6-(butylsulfinyl)-4-phenyl-2-(pyridin-3-yl)thieno[2,3-d]pyrimidin-5-amine], for which the IC50 was 0.52 nM. Still for that read-out and setting: under `CCCC[S+]([O-])c1sc2nc(-c3cccnc3)nc(-c3ccccc3)c2c1N` (single isomer, unassigned) [74B, 6-(butylsulfinyl)-4-phenyl-2-(pyridin-3-yl)thieno[2,3-d]pyrimidin-5-amine] stands 28 nM.

Staying with this series, now noted: Enzyme Inhibitor IC50 (nM) at 5 nM 15-PGDH, 5 nM recombinant 15-PGDH.
With `CCCC[S+]([O-])c1sc2nc(-c3ccc(OC)nc3)cc(-c3ccccc3)c2c1N` (centres unmarked) [compound 23], the IC50 lay in the range of 4 to 20 nM.

Turning to `CCCC[S+]([O-])c1sc2nc(C3CC3)cc(-c3ccccc3)c2c1N` (centres unmarked) [compound 25], the IC50 fell in the range of 4 to 20 nM.

The series is the same for the next values; noted with them: read-out: Enzyme Inhibitor IC50 (nM) at 1 nM 15-PGDH; 1 nM recombinant 15-PGDH.
For `CCCC[S@@+]([O-])c1sc2nc(-c3cccnc3)cc(-c3cnc(C)n3C)c2c1N` [38A], the IC50 came out at 0.76 nM. The same measure, in the same setting: under `CCCC[S@+]([O-])c1sc2nc(-c3cccnc3)cc(-c3cnc(C)n3C)c2c1N` [38B] stands 27 nM; under `CCCC[S@@+]([O-])c1sc2nc(-c3cncnc3)cc(-c3cnc(C)n3C)c2c1N` [39A], 0.72 nM. Consider `CCCC[S@+]([O-])c1sc2nc(-c3cncnc3)cc(-c3cnc(C)n3C)c2c1N` [39B], for which the IC50 was above 100 nM. Still for that read-out and setting: under `CCCC[S@@+]([O-])c1sc2nc(-c3cccnc3)cc(-c3ccccc3)c2c1N` [41A] stands 0.73 nM; under `CCCC[S@+]([O-])c1sc2nc(-c3cccnc3)cc(-c3ccccc3)c2c1N` [41B], 27 nM; under `CCCC[S@+]([O-])c1sc2nc(-c3cncnc3)cc(-c3ccccc3)c2c1N` [42A], 30 nM. Same read-out and setting: under `CCCC[S@@+]([O-])c1sc2nc(-c3cncnc3)cc(-c3ccccc3)c2c1N` [42B] stands 0.59 nM; under `CCCC[S@@+]([O-])c1sc2nc(-c3cccnc3)cc(-c3cncn3C)c2c1N` [43A], 0.58 nM; under `CCCC[S@+]([O-])c1sc2nc(-c3cccnc3)cc(-c3cncn3C)c2c1N` [43B], above 100 nM. The same measure, in the same setting: under `CCCC[S@@+]([O-])c1sc2nc(-c3cnn(C)c3)cc(-c3ccccc3)c2c1N` [46A] stands 0.7 nM. Take `CCCC[S@+]([O-])c1sc2nc(-c3cnn(C)c3)cc(-c3ccccc3)c2c1N` [46B]: the IC50 was above 100 nM. On the same count and under the same terms, under `CCCC[S@@+]([O-])c1sc2nc(-c3ccncn3)cc(-c3ccccc3)c2c1N` [47A] stands 0.65 nM; under `CCCC[S@+]([O-])c1sc2nc(-c3ccncn3)cc(-c3ccccc3)c2c1N` [47B], 79 nM.

Consider `CCCC[S@@+]([O-])c1sc2nc(-c3nccs3)cc(-c3cn(C)cn3)c2c1N` [48A], for which the IC50 turned out to be 0.72 nM.

`CCCC[S@+]([O-])c1sc2nc(-c3nccs3)cc(-c3cn(C)cn3)c2c1N` [48B]: the IC50 was above 100 nM. On to `COCCC[S@@+]([O-])c1sc2nc(-c3cccnc3)cc(-c3cncn3C)c2c1N` [50A], for which the IC50 came out at 0.57 nM.

Take `COCCC[S@+]([O-])c1sc2nc(-c3cccnc3)cc(-c3cncn3C)c2c1N` [50B]: the IC50 was above 100 nM. Regarding `CCCC[S@@+]([O-])c1sc2nc(-c3cccnc3)cc(-c3cnc(C4CC4)n3C)c2c1N` [52A, (R)-2-(butylsulfinyl)-4-(2-cylcopropyl-1-methyl-1H-imidazol-5-yl)-6-(pyridine-3-yl)thieno[2,3-b]pyridine-3-amine], the IC50 is 0.75 nM.

As for `CCCC[S@+]([O-])c1sc2nc(-c3cccnc3)cc(-c3nnc(C4CC4)n3C)c2c1N` [52B], the IC50 was above 100 nM.

In the case of `CCCC[S@@+]([O-])c1sc2nc(-c3cccnc3)cc(-c3cccnc3)c2c1N` [54A], the IC50 came to 0.45 nM.

As for `CCCC[S@+]([O-])c1sc2nc(-c3cccnc3)cc(-c3cccnc3)c2c1N` [54B], the IC50 was above 100 nM. Still for that read-out and setting: under `CCCC[S@@+]([O-])c1sc2nc(-c3cccnc3)cc(-c3ccccn3)c2c1N` [58A] stands 0.55 nM; under `CCCC[S@+]([O-])c1sc2nc(-c3cccnc3)cc(-c3ccccn3)c2c1N` [58B], 0.13 nM; under `CCCC[S@@+]([O-])c1sc2nc(-c3cnc(NC)nc3)cc(-c3ccccc3)c2c1N` [60A], 0.5 nM. Still for that read-out and setting: under `CCCC[S@+]([O-])c1sc2nc(-c3cnc(NC)nc3)cc(-c3ccccc3)c2c1N` [60B] stands 41 nM; under `CCCC[S@@+]([O-])c1sc2nc(-c3cnc(N)nc3)cc(-c3ccc(F)cc3)c2c1N` [61A], 0.44 nM; under `CCCC[S@+]([O-])c1sc2nc(-c3cnc(N)nc3)cc(-c3ccc(F)cc3)c2c1N` [61B], 24 nM. Consider `CCCC[S@@+]([O-])c1sc2nc(-c3ccc(N)nc3)cc(-c3ccccc3)c2c1N` [62A], for which the IC50 stood at 0.56 nM.

For the compound `CCCC[S@+]([O-])c1sc2nc(-c3ccc(N)nc3)cc(-c3ccccc3)c2c1N` [62B], the IC50 worked out at 64 nM. On the same count and under the same terms, under `CCCC[S@@+]([O-])c1sc2nc(-c3cnc(N)nc3)cc(-c3ccccc3)c2c1N` [64A] stands 0.36 nM; under `CCCC[S@+]([O-])c1sc2nc(-c3cnc(N)nc3)cc(-c3ccccc3)c2c1N` [64B], above 100 nM; under `COCCC[S@@+]([O-])c1sc2nc(-c3cnc(N)nc3)cc(-c3ccccc3)c2c1N` [65A], 0.59 nM. Regarding `COCCC[S@+]([O-])c1sc2nc(-c3cnc(N)nc3)cc(-c3ccccc3)c2c1N` [65B], the IC50 is 30 nM.

`COCCC[S@@+]([O-])c1sc2nc(-c3cccnc3)cc(-c3ccccc3)c2c1N` [68A]: the IC50 came out at 0.48 nM. The same measure, in the same setting: under `COCCC[S@+]([O-])c1sc2nc(-c3cccnc3)cc(-c3ccccc3)c2c1N` [68B] stands above 100 nM.

On to `COCCC[S@@+]([O-])c1sc2nc(-c3cccnc3)cc(-c3cn(C)cn3)c2c1N` [89A], for which the half-maximal inhibitory concentration (IC50) worked out at 0.77 nM. Still for that read-out and setting: under `COCCC[S@+]([O-])c1sc2nc(-c3cccnc3)cc(-c3cn(C)cn3)c2c1N` [89B] stands 74 nM.

The same series, now with this note: read-out: Enzyme Inhibitor IC50 (nM) at 5 nM 15-PGDH; 5 nM recombinant 15-PGDH.
For the compound `CCCC[S@+]([O-])c1sc2nc(-c3nccs3)cc(-c3cn(C)c(C)n3)c2c1N` (stereo in doubt) [compound 3, 2-(butylsulfinyl)-4-(1,2-dimethyl-1H-imidazol-4-yl)-6-(thiazol-2-yl)thieno[2,3-b]pyridin-3-amine], the IC50 is above 500 nM. For the compound `CCCC[S@@+]([O-])c1sc2nc(-c3nccs3)cc(-c3cn(C)c(C)n3)c2c1N` (stereo in doubt) [compound 4, 2-(butylsulfinyl)-4-(1,2-dimethyl-1H-imidazol-4-yl)-6-(thiazol-2-yl)thieno[2,3-b]pyridin-3-amine], the IC50 amounted to 1.4 nM. Same read-out and setting: under `CCCC[S+]([O-])c1sc2nc(-c3nccs3)cc(-c3cn(C)c(C)n3)c2c1N` (centres unmarked) [compound 2, 2-(butylsulfinyl)-4-(1,2-dimethyl-1H-imidazol-4-yl)-6-(thiazol-2-yl)thieno[2,3-b]pyridin-3-amine] stands 2.3 nM; under `CCCC[S+]([O-])c1sc2nc(-c3nccs3)cc3c2c1Nc1ncncc1-3` (centres unmarked) [compound 6, 5-(butylsulfinyl)-2-(thiazol-2-yl)-6H-pyrimido[4,5-c]thieno[2,3,4-ij][2,7]naphthyridine], 86 nM; under `CCCC[S+]([O-])c1sc2nc(-c3nccs3)cc3c4c(nc1c23)NC=NC=4` (centres unmarked) [compound 7, 5-(butylsulfinyl)-2-(thiazol-2-yl)-7H-pyrimido[4,5-c]thieno[2,3,4-ij][2,7]naphthyridine], 132 nM.

Tested on in the next series: not listed separately
As to the kind of experiment: metabolic stability in mouse liver microsomes. Format: in vitro ADME. As to conditions: LC-MS, FIGS. 2 and 3. The procedure:
The metabolic stability was determined by incubating the compounds at a concentration of 10 μM in the presence of microsomes derived from mouse livers. Compound concentrations were monitored by HPLC/MS over time, and half-lives were calculated from the slope of the best-fit line for Ln[compound] vs time.
Metabolite M8 is a thioamide resulting from oxidative cleavage of the thiazole ring. By contrast, 6 membered ring heteroaryls cannot form this metabolite or the toxic byproducts.
Take `CCCC[S+]([O-])c1sc2nc(-c3nccs3)cc(-c3cnc(C)n3C)c2c1N` (centres unmarked) [2-(butylsulfinyl)-4-(1,2-dimethyl-1H-imidazol-5-yl)-6-(thiazol-2-yl)thieno[2,3-b]pyridin-3-amine]: the “metabolites formed on incubation with mouse liver microsomes” value is given as “formation of metabolites derived from oxidation of the thiazole”.
